Data taken from paper PMC5944028, “Nonclinical and clinical pharmacological characterization of the potent and selective cathepsin K inhibitor MIV-711” (Journal of Translational Medicine, 2018).

Columns and labels:
rabbit cathepsin K = molecular target: T1, rabbit cathepsin K (Oryctolagus cuniculus, UniProt P43236); assay: Recombinant enzyme assay, rabbit cathepsin K; assay type: biochemical; conditions: footnote a: IC50
T1 construct: made in house; host or cells: E. coli
Text: (§1) Recombinant cathepsin K enzymes from all species were expressed in E. coli, purified and activated. Human cathepsin F and cathepsin S were expressed in Baculovirus, purified and activated. Purified human cathepsins B and H (Athens Research Technology), cathepsin L (Calbiochem), and cathepsin V (R & D Systems) were purchased.
(§2) H-D-Ala_Leu-Lys-AMC was used as the substrate in assays of cathepsin K from non-rodent species (human, dog, rabbit and guinea pig), and Z-Leu-Arg-AMC was used as the substrate in assays of cathepsin K from rodent species (mouse and rat). […]
(§3) Assays were carried out in white polystyrene 96-well plates in a final volume of 100 µL. […] Plates were read in a Fluoroskan Ascent (Thermo Labsystems, Helsinki, Finland) in kinetic mode, with excitation and emission filters of 390 and 460 nm, respectively. Rates were determined by linear regression of the fluorescence/time data in Excel. Rates were fitted by non-linear regression to either the competitive inhibition equation, with the substrate concentration fixed at the value in the assay and the KM fixed to the value previously determined, or the IC50 equation using GraphPad Prism (GraphPad, version 6, San Diego, USA) to obtain Ki or IC50 values, respectively.

[1] = tested on: differentiated human osteoclasts; parameters: method as in PMID 20097319; conditions: bovine bone slices; read-out: IC50 in bone resorption assay; cited from earlier work
[2] = tested on: > 70 different ion channels, receptors, transporters and CYP enzymes; assay: PanLabs broad panel; conditions: 10 µmol/L
Procedure: MIV-711 was analyzed against > 70 different ion channels, receptors, transporters and cytochrome P450 (CYP) enzymes at a concentration of 10 µmol/L at PanLabs (Taipei, Taiwan).

plasma CTX-I = assay: Monkey plasma CTX-I, repeat oral doses; assay type: in vivo, cynomolgus monkeys (Macaca fascicularis)
Procedure: Repeat dosing experiments were performed in four male monkeys from the group outlined above (Covance). Vehicle or MIV-711 (30 µmol/kg) was given via oral gavage once daily for 5 days between 7:30 and 8:30 a.m. Plasma for CTX-I measurements was collected on Day 1 at baseline, 1, 2, 4, 8 and 12 h after dose, on Days 2, 3 and 4 early in the morning before next dose (i.e. at trough), and on Day 5 at trough, 1, 2, 4, 8, 12 and 24 h after dose. [drawing 2]
The quantification of CTX-I in monkey plasma samples and human serum samples was performed using a commercially available kit (Serum CrossLaps ELISA, IDS Nordic, Herlev, Denmark). The levels of CTX-I in monkey urine samples were measured using a commercially available kit (Urine BETA CrossLaps ELISA, IDS Nordic). The quantification of NTX-I in monkey samples was performed using a commercially available kit (Osteomark NTx Urine, Wampole Laboratories, Inc, Princeton, USA). Urinary levels of CTX-II in monkey samples were measured using a commercially available kit (Urine CrossLaps EIA, IDS Nordic). The concentrations of biomarkers in the urine samples were corrected for creatinine concentrations. The creatinine levels in urine were determined at Swedish University of Agricultural Sciences, using the enzymatic assay (cat no. 8L24-01) on the Abbott system Architect c4000.

dog cathepsin K = molecular target: T2, dog cathepsin K (Canis lupus familiaris, UniProt Q3ZKN1); assay: Recombinant enzyme assay, dog cathepsin K; assay type: biochemical; conditions: geometric mean
T2 construct: made in house; host or cells: E. coli
Text: as §1, §2, §3

human cathepsin K [3] = molecular target: T3, human cathepsin K (Homo sapiens, UniProt P43235); assay: Kinetics of inhibition by progress curve analysis; assay type: biochemical
T3 construct: made in house; host or cells: E. coli
T3 sequence (P43235 115-329): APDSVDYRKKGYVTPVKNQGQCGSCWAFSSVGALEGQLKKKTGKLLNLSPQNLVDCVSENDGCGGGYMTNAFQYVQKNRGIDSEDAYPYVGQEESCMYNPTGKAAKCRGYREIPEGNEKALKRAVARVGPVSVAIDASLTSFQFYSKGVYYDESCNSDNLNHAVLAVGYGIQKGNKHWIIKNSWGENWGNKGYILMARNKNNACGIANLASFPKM
Procedure: The kinetics of MIV-711 inhibition of human recombinant cathepsin K were measured by progress curve analysis. Briefly, 100 µmol/L substrate and 0.5 nmol/L cathepsin K were combined in 0.5 mL of buffer in a quartz cuvette and the fluorescence measured continuously in a spectrofluorometer (Hitachi F-4500, Hitachi Scientific Instruments, Woking, UK). Excitation wavelength was 385 nm and emission wavelength was 460 nm and slits were 5 and 10 nm for excitation and emission, respectively. PMT voltage was 700 V and the response time was 0.01 s. Once a linear rate was established, 5 µL MIV-711 (final assay concentration between 10 and 50 nmol/L) or 5 µL DMSO control was added and data collected until a new equilibrium rate was achieved. Data were imported into GraphPad Prism and then fitted to the Morrison equation [26] to obtain kobs. The kobs values were plotted against the inhibitor concentration and fitted to a straight line to obtain kon and koff.

human cathepsin K [4] = molecular target: T3, human cathepsin K; assay: Recombinant enzyme assay, human cathepsin K; assay type: biochemical
Text: as §1, §2, §3

human cathepsin V = molecular target: T4, human cathepsin V (Homo sapiens, UniProt O60911); assay: Enzyme assay, human cathepsin V; assay type: biochemical
T4 construct: purchased R & D Systems
Text: as §1, §2, §3

[5] = 30 µmol/kg p.o. once daily, Day 5

T2 sequence (Q3ZKN1 116-330): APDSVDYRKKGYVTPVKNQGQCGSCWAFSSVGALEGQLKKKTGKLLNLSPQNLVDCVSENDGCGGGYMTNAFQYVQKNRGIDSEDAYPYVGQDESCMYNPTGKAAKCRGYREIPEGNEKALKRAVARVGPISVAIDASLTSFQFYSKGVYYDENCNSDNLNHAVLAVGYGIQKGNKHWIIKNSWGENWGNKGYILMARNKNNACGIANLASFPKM
T4 sequence (O60911 114-334): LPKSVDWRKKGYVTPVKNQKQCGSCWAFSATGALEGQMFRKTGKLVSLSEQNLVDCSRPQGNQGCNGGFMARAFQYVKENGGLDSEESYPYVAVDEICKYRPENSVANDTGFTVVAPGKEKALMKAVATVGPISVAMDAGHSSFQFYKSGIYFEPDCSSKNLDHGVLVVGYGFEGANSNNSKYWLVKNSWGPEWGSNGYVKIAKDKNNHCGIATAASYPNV
T1 sequence (P43236 115-329): as the sequence (Q3ZKN1 116-330) above, with A1T, V5I, D61Y, K77R, I131V, N156S, L160V, N187S counted along it

In the case of `C#C[C@@H]1CN(C(=O)[C@H](CC(C)C)NC(=O)c2ccc(-c3nc(N4CCN(C)CC4)sc3F)cc2)[C@@H]2C(=O)CO[C@H]12` [MIV-711], the IC50 (rabbit cathepsin K) is given as 3.3 nM, the IC50 [1] is given as 37 nM and the “Responses (more than 50% inhibition) in broad panel” value [2] is given as “No significant responses”. The “Maximum reduction of plasma CTX-I from baseline” value (plasma CTX-I; 30 µmol/kg p.o. once daily, Day 1, 12 h post dose) was 76%, the “Maximal reduction of plasma CTX-I vs initial baseline” value (plasma CTX-I; [5]) was 67% and the “Trough plasma CTX-I lower than baseline” value (plasma CTX-I; [5]) was 38%. The “Trough plasma CTX-I lower than baseline” value (plasma CTX-I; 30 µmol/kg p.o., after the first dose on Day 1) was 48%, the Ki (dog cathepsin K) was 1.5 nM and the residence time (human cathepsin K [3]; from koff) was “about 90 s”. For the same compound, the Ki (human cathepsin K [3]; from kon and koff experiments, read-out: Ki from kinetic experiments) was 1.7 nM, the koff rate (human cathepsin K [3]; human cathepsin K) was 0.008 s⁻¹ and the kon rate (human cathepsin K [3]; human cathepsin K) was 4.6e+06 M⁻¹ s⁻¹. The “Selectivity versus the other human cathepsins tested” value (human cathepsin K [4]; cathepsin K vs cathepsins B, L, F, V, H, S) was “more than 1300 fold”, the Ki (human cathepsin K [4]; human recombinant cathepsin K, geometric mean) was 0.98 nM and the Ki (human cathepsin V) was 4000 nM.
